# Assay results from PubChem BioAssay (NCI).
#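 Tested at 5 concentrations; 48 h exposure; 96-well plates; endpoints linearly interpolated, else capped at highest concentration. GI50: concentration for 50% inhibition of growth. TGI denotes the concentration required for complete inhibition of growth.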
# Legend:
# Assay in all cases: NCI tumour cell line growth inhibition, 48 h
# SF-539 CNS = tested on: SF-539 CNS
# K-562 leukemia = tested on: K-562 leukemia
# NCI-H226 lung = tested on: NCI-H226 lung
# HOP-62 NSCLC = tested on: HOP-62 NSCLC
# NCI-H23 lung = tested on: NCI-H23 lung
# MALME-3M melanoma = tested on: MALME-3M melanoma
# T-47D breast = tested on: T-47D breast
# HCT-116 colon = tested on: HCT-116 colon
# RXF 393 renal = tested on: RXF 393 renal
# MDA-MB-435 = tested on: MDA-MB-435
# OVCAR-5 ovarian = tested on: OVCAR-5 ovarian
# HCC-2998 colon = tested on: HCC-2998 colon
# EKVX NSCLC = tested on: EKVX NSCLC
# SW-620 colon = tested on: SW-620 colon
# HS 578T breast = tested on: HS 578T breast
# OVCAR-8 ovarian = tested on: OVCAR-8 ovarian
# A549 NSCLC = tested on: A549 NSCLC
# NCI-H460 lung = tested on: NCI-H460 lung
# 786-0 renal = tested on: 786-0 renal
# TK-10 renal = tested on: TK-10 renal
# A498 renal = tested on: A498 renal
# PC-3 prostate = tested on: PC-3 prostate
# MCF7 breast = tested on: MCF7 breast
# OVCAR-3 ovarian = tested on: OVCAR-3 ovarian
# IGROV1 ovarian = tested on: IGROV1 ovarian
# HL-60(TB) leukemia = tested on: HL-60(TB) leukemia
# SK-OV-3 ovarian = tested on: SK-OV-3 ovarian
# CCRF-CEM leukemia = tested on: CCRF-CEM leukemia
# HOP-92 NSCLC = tested on: HOP-92 NSCLC
structure (smiles),measurement,setting,value
C1CCC(C(CC2CCCCN2)C2CCCCC2)CC1 (stereo not drawn),GI50,SF-539 CNS,1820 nM
same,TGI,SF-539 CNS,3390 nM
same,GI50,K-562 leukemia,2450 nM
same,TGI,K-562 leukemia,5110 nM
same,GI50,NCI-H226 lung,1640 nM
same,TGI,NCI-H226 lung,3190 nM
same,GI50,HOP-62 NSCLC,1350 nM
same,TGI,HOP-62 NSCLC,2640 nM
same,GI50,NCI-H23 lung,1720 nM
same,TGI,NCI-H23 lung,3490 nM
same,GI50,MALME-3M melanoma,1920 nM
same,TGI,MALME-3M melanoma,3690 nM
same,GI50,T-47D breast,1440 nM
same,TGI,T-47D breast,2940 nM
same,GI50,HCT-116 colon,1680 nM
same,TGI,HCT-116 colon,3140 nM
same,GI50,RXF 393 renal,1420 nM
same,TGI,RXF 393 renal,2780 nM
same,GI50,MDA-MB-435,1590 nM
same,TGI,MDA-MB-435,3070 nM
same,GI50,OVCAR-5 ovarian,1700 nM
same,TGI,OVCAR-5 ovarian,3220 nM
same,GI50,HCC-2998 colon,1410 nM
same,TGI,HCC-2998 colon,2960 nM
same,GI50,EKVX NSCLC,1620 nM
same,TGI,EKVX NSCLC,3280 nM
same,GI50,SW-620 colon,1770 nM
same,TGI,SW-620 colon,3400 nM
same,GI50,HS 578T breast,2150 nM
same,TGI,HS 578T breast,5550 nM
same,GI50,OVCAR-8 ovarian,1770 nM
same,TGI,OVCAR-8 ovarian,3530 nM
same,GI50,A549 NSCLC,1720 nM
same,TGI,A549 NSCLC,3320 nM
same,GI50,NCI-H460 lung,1840 nM
same,TGI,NCI-H460 lung,3620 nM
same,GI50,786-0 renal,1640 nM
same,TGI,786-0 renal,3160 nM
same,GI50,TK-10 renal,1630 nM
same,TGI,TK-10 renal,3090 nM
same,GI50,A498 renal,1360 nM
same,TGI,A498 renal,2670 nM
same,GI50,PC-3 prostate,1500 nM
same,TGI,PC-3 prostate,2950 nM
same,GI50,MCF7 breast,1650 nM
same,TGI,MCF7 breast,3140 nM
same,GI50,OVCAR-3 ovarian,1820 nM
same,TGI,OVCAR-3 ovarian,3260 nM
same,GI50,IGROV1 ovarian,1870 nM
same,TGI,IGROV1 ovarian,3450 nM
same,GI50,HL-60(TB) leukemia,2370 nM
same,TGI,HL-60(TB) leukemia,4380 nM
same,GI50,SK-OV-3 ovarian,1540 nM
same,TGI,SK-OV-3 ovarian,2880 nM
same,GI50,CCRF-CEM leukemia,1970 nM
same,TGI,CCRF-CEM leukemia,4820 nM
same,GI50,HOP-92 NSCLC,990 nM
same,TGI,HOP-92 NSCLC,2360 nM
